Where two headings read alike, the source gives them in different places.
Biological target: GCN2 (Homo sapiens, UniProt Q9P2K8)
Test: GCN2 enzymatic endpoint assay: phosphorylation of GFP-eIF2α measured by TR-FRET (Lanthascreen)
Assay type: biochemical
Outline: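 Endpoint GCN2 reaction with low ATP (2 μM) and 80 nM GFP-eIF2α, room temperature, 90 minutes. Detection mix with EDTA and Tb-labelled antibody; 520 nm/495 nm emission ratio reported.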

[1] = GCN2 biochemical IC50, 4 nM GCN2, 2 μM ATP, 80 nM GFP-eIF2α, 90 min RT, read-out: GCN2 activity
[2] = tested as described in Example 77, compound and/or hydrochloride, dihydrochloride or trifluoroacetic acid salt, read-out: IC 50 Activity

Chain of GCN2 (Q9P2K8 whole entry): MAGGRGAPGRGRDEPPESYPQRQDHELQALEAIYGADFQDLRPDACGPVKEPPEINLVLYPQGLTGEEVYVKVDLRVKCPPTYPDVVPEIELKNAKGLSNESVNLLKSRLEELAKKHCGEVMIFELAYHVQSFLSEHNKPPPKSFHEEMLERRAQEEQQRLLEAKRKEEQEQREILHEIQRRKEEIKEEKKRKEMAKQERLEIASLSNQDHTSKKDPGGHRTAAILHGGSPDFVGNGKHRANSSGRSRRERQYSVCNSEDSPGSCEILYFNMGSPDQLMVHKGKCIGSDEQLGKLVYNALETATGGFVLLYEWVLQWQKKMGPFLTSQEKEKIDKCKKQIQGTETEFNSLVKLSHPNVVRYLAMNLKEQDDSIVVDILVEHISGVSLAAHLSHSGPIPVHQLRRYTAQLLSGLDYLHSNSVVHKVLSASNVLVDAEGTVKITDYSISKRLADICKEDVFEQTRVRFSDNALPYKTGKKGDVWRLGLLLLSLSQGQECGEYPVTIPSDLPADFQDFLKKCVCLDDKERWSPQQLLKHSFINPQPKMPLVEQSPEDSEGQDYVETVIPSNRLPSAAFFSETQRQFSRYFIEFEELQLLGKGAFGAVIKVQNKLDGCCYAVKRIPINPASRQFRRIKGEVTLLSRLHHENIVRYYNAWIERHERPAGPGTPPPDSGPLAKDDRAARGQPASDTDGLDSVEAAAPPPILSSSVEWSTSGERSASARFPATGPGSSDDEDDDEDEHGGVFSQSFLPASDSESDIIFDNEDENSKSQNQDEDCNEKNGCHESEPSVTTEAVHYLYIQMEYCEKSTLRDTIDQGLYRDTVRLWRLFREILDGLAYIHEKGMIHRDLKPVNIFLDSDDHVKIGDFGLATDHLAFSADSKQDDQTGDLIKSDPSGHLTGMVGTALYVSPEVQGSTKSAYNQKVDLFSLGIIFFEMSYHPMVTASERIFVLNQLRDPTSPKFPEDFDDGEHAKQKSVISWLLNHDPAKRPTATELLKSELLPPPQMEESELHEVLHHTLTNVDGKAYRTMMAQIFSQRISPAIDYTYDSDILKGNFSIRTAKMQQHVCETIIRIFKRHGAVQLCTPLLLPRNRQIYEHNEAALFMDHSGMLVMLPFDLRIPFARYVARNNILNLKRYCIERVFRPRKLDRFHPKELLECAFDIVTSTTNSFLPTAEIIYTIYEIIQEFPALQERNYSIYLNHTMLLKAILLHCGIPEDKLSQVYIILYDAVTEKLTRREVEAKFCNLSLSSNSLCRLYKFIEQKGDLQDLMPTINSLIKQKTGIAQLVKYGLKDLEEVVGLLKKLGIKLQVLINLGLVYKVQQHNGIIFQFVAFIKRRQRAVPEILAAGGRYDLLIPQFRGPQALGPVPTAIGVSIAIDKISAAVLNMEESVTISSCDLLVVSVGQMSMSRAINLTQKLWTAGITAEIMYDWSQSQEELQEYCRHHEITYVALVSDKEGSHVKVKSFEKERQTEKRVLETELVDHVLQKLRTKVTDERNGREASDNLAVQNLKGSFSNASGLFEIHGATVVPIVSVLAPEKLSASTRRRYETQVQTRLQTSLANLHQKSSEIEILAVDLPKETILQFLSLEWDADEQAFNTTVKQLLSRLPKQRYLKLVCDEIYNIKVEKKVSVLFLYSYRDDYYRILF

Row | SMILES | IC50 [1] [nM] | IC50 [2] [nM]
1 | COCCNS(=O)(=O)[C@@H]1CC[C@@H](Nc2ncc3c(Br)nn(-c4ccc5ncccc5c4)c3n2)C1 [(1R,3R)-3-((3-bromo-1-(quinolin-6-yl)-1H-pyrazolo[3,4-d]pyrimidin-6-yl)amino)-N-(2-methoxyethyl)cyclopentane-1-sulfonamide] |  | 25 to 200
2 | CNC(=O)[C@]1(C)CC[C@@H](Nc2ncc3c(Br)nn(-c4ccc(C(=O)c5ccno5)cc4)c3n2)C1 [(1R,3R)-3-[[3-bromo-1-[4-(isoxazole-5-carbonyl)phenyl]pyrazolo[3,4-d]pyrimidin-6-yl]amino]-N,1-dimethyl-cyclopentanecarboxamide] |  | 25 to 200
3 | COC[C@H](C)NC(=O)[C@@H]1CCC[C@@H](Nc2ncc3c(Br)nn(-c4ccc5ncccc5c4)c3n2)C1 [(1R,3R)-3-((3-bromo-1-(quinolin-6-yl)-1H-pyrazolo[3,4-d]pyrimidin-6-yl)amino)-N-((S)-1-methoxypropan-2-yl)cyclohexane-1-carboxamide] |  | 500 to 1000
4 | O=C([C@@H]1CC[C@@H](Nc2ncc3c(Br)nn(-c4ccc5ncccc5c4)c3n2)C1)N1CCC(O)(CO)CC1 [((1R,3R)-3-((3-bromo-1-(quinolin-6-yl)-1H-pyrazolo[3,4-d]pyrimidin-6-yl)amino)cyclo-pentyl)(4-hydroxy-4-(hydroxymethyl)piperidin-1-yl)methanone] |  | 25 to 200
5 | CNC(=O)[C@]1(C)CC[C@@H](Nc2ncc3c(Br)nn(-c4cc(O)c5c(c4)OCC(=O)N5C)c3n2)C1 [(1R,3R)-3-[[3-bromo-1-(5-hydroxy-4-methyl-3-oxo-1,4-benzoxazin-7-yl)pyrazolo[3,4-d]pyrimidin-6-yl]amino]-N,1-dimethyl-cyclo-pentanecarboxamide] |  | 25 to 200
6 | CNC(=O)[C@]1(C)CC[C@@H](Nc2ncc3c(Br)nn(-c4cc(C5CCCO5)c5ncccc5c4)c3n2)C1 (stereo partly drawn) [(1R,3R)-3-[[3-bromo-1-(8-tetrahydrofuran-2-yl-6-quinolyl)pyrazolo[3,4-d]pyrimidin-6-yl]amino]-N,1-dimethyl-cyclopentane-carboxamide] |  | 25 to 200
7 | CNC(=O)[C@]1(C)CC[C@@H](Nc2ncc3c(Br)nn(-c4ccc5ncc(CNCCC#N)cc5c4)c3n2)C1 [(1R,3R)-3-[[3-bromo-1-[3-[(2-cyanoethyl-amino)methyl]-6-quinolyl]pyrazolo[3,4-d]pyrimidin-6-yl]amino]-N,1-dimethyl-cyclo-pentanecarboxamide] |  | 25 to 200
8 | O=C(NC1COC1)[C@@H]1CC[C@@H](Nc2ncc3c(Br)nn(-c4ccc5ncccc5c4)c3n2)C1 [(1R,3R)-3-((3-bromo-1-(quinolin-6-yl)-1H-pyrazolo[3,4-d]pyrimidin-6-yl)amino)-N-(oxetan-3-yl)cyclopentane-1-carboxamide] |  | 25 to 200
9 | CNC(=O)[C@]1(C)CC[C@@H](Nc2ncc3c(Br)nn(-c4ccc(-c5ccon5)cc4)c3n2)C1 [(1R,3R)-3-[[3-bromo-1-(4-isoxazol-3-ylphenyl)pyrazolo[3,4-d]pyrimidin-6-yl]amino]-N,1-dimethyl-cyclopentane-carboxamide] |  | 25 to 200
10 | N#Cc1cc(-n2nc(Br)c3cnc(N[C@@H]4CC[C@@H](C(=O)NCC5CC5)C4)nc32)cc2cccnc12 [(1R,3R)-3-((3-bromo-1-(8-cyanoquinolin-6-yl)-1H-pyrazolo[3,4-d]pyrimidin-6-yl)amino)-N-(cyclopropylmethyl)cyclo-pentane-1-carboxamide] |  | 25 to 200
11 | CNC(=O)[C@]1(C)CCC(Nc2ncc3c(Br)nn(-c4ccc5c(=O)[nH]ccc5c4)c3n2)C1 (stereo partly drawn) [(1R)-3-[[3-bromo-1-(1-oxo-2H-isoquinolin-6-yl)pyrazolo[3,4-d]pyrimidin-6-yl]amino]-N,1-dimethyl-cyclopentanecarboxamide] |  | 25 to 200
12 | CNC(=O)[C@]1(C)CC[C@@H](Nc2ncc3c(Br)nn(-c4ccc(-c5nnc(C)s5)c(CC(O)C(F)(F)F)c4)c3n2)C1 (stereo partly drawn) [(1R,3R)-3-[[3-bromo-1-[4-(5-methyl-1,3,4-thiadiazol-2-yl)-3-(3,3,3-trifluoro-2-hydroxy-propyl)phenyl]pyrazolo[3,4-d]pyrimidin-6-yl]amino]-N,1-dimethyl-cyclopentane-carboxamide] |  | 25 to 200
13 | COCCNC(=O)[C@H]1CC[C@H](Nc2ncc3c(Br)nn(-c4ccc5ncccc5c4)c3n2)C1 [(1S,3S)-3-((3-bromo-1-(quinolin-6-yl)-1H-pyrazolo[3,4-d]pyrimidin-6-yl)amino)-N-(2-methoxyethyl)cyclopentane-1-carboxamide] |  | 500 to 1000
14 | CNC(=O)[C@]1(C)CC[C@@H](Nc2ncc3c(Br)nn(-c4ccc5c(c4)OCC(=O)N5CCO)c3n2)C1 [(1R,3R)-3-[[3-bromo-1-[4-(2-hydroxy-ethyl)-3-oxo-1,4-benzoxazin-7-yl]pyrazolo[3,4-d]pyrimidin-6-yl]amino]-N,1-dimethyl-cyclopentanecarboxamide] |  | 25 to 200

The next lines start with the values.

Row | IC50 [1] [nM] | IC50 [2] [nM] | SMILES
15 | 25 to 200 |  | CNC(=O)[C@@H]1CC[C@@H](Nc2ncc3c(Br)nn(-c4ccc(-c5ncco5)cc4)c3n2)C1 [Example 10, (1R,3R)-3-((3-bromo-1-(4-(oxazol-2-yl)phenyl)-1H-pyrazolo[3,4-d]pyrimidin-6-yl)amino)-N-methylcyclopentane-1-carboxamide]
16 |  | 200 to 500 | CNC(=O)[C@H]1C[C@H](Nc2ncc3c(Br)nn(-c4cc(F)c5ncccc5c4)c3n2)C1
17 |  | 25 to 200 | CNC(=O)[C@]1(C)CC[C@@H](Nc2ncc3c(Br)nn(-c4ccc(-c5nnc(C)s5)c(CCCN)c4)c3n2)C1 [(1R,3R)-3-[[1-[3-(3-aminopropyl)-4-(5-methyl-1,3,4-thiadiazol-2-yl)phenyl]-3-bromopyrazolo[3,4-d]pyrimidin-6-yl]amino]-N,1-dimethyl-cyclopentanecarboxamide]
18 |  | 25 to 200 | CP(C)(=O)[C@@H]1CC[C@@H](Nc2ncc3c(Br)nn(-c4cc(CCN)c5nccnc5c4)c3n2)C1 [1-[8-(2-aminoethyl)quinoxalin-6-yl]-3-bromo-N-[(1R,3R)-3-dimethylphosphorylcyclopentyl] pyrazolo[3,4-d]pyrimidin-6-amine]
19 |  | 500 to 1000 | O=C(N[C@H]1CC[C@](O)(C(F)(F)F)CC1)[C@@H]1CC[C@@H](Nc2ncc3c(Br)nn(-c4ccc5ncccc5c4)c3n2)C1
20 |  | 25 to 200 | CNC(=O)[C@]1(C)CC[C@@H](Nc2ncc3c(Br)nn(-c4ccc(-c5nnc(CN)s5)cc4)c3n2)C1 [(1R,3R)-3-[[1-[4-[5-(aminomethyl)-1,3,4-thiadiazol-2-yl]phenyl]-3-bromo-pyrazolo [3,4-d]pyrimidin-6-yl]amino]-N,1-dimethyl-cyclopentanecarboxamide]
21 | 200 to 500 |  | CN1CCN(C(=O)[C@@H]2CC[C@@H](Nc3ncc4c(Br)nn(-c5ccc(N6CCOCC6)c(C#N)c5)c4n3)C2)CC1=O [Example 9, 5-(3-bromo-6-(((1R,3R)-3-(4-methyl-3-oxopiperazine-1-carbonyl)cyclopentyl)amino)-1H-pyrazolo[3,4-d]pyrimidin-1-yl)-2-morpholinobenzonitrile]
22 |  | 25 to 200 | CNC(=O)[C@]1(C)CC[C@@H](Nc2ncc3c(Br)nn(-c4ccc(-c5nnc(C6CC6)o5)cc4)c3n2)C1 [(1R,3R)-3-[[3-bromo-1-[4-(5-cyclopropyl-1,3,4-oxadiazol-2-yl)phenyl]pyrazolo[3,4-d]pyrimidin-6-yl]amino]-N,1-dimethyl-cyclopentane-carboxamide]
23 |  | 25 to 200 | CNC(=O)[C@]1(CC(F)F)CC[C@@H](Nc2ncc3c(Br)nn(-c4ccc(-c5cccnc5)c(C#N)c4)c3n2)C1 [(1R,3R)-3-[[3-bromo-1-[3-cyano-4-(3-pyridyl)phenyl]pyrazolo[3,4-d]pyrimidin-6-yl]amino]-1-(2,2-difluoroethyl)-N-methyl-cyclopentanecarboxamide]
24 |  | 25 to 200 | CNC(=O)[C@]1(C)CC[C@@H](Nc2ncc3c(Br)nn(-c4ccc(-c5ncco5)c(C(C)(C)CN)c4)c3n2)C1 [(1R,3R)-3-[[1-[3-(2-amino-1,1-dimethyl-ethyl)-4-oxazol-2-yl-phenyl]-3-bromo-pyrazolo[3,4-d]pyrimidin-6-yl]amino]-N,1-dimethyl-cyclopentanecarboxamide]
25 |  | 25 to 200 | CNC(=O)[C@]1(C)CC[C@@H](Nc2ncc3c(Br)nn(-c4cc(F)cc(CO)c4)c3n2)C1 [(1R,3R)-3-[[3-bromo-1-[3-fluoro-5-(hydroxymethyl)phenyl]pyrazolo[3,4-d]pyrimidin-6-yl]amino]-N,1-dimethyl-cyclopentanecarboxamide]
26 |  | 25 to 200 | CNC(=O)[C@]1(C)CC[C@@H](Nc2ncc3c(Br)nn(-c4cc(F)c5ncccc5c4)c3n2)C1 [(1R,3R)-3-((3-bromo-1-(8-fluoroquinolin-6-yl)-1H-pyrazolo[3,4-d]pyrimidin-6-yl)amino)-N,1-dimethylcyclopentane-1-carboxamide]
27 | 25 to 200 |  | CNC(=O)[C@]1(C)CC[C@@H](Nc2ncc3c(Br)nn(-c4ccc5ncn(C)c(=O)c5c4)c3n2)C1 [Example 72, (1R,3R)-3-((3-bromo-1-(3-methyl-4-oxo-3,4-dihydroquinazolin-6-yl)-1H-pyrazolo[3,4-d]pyrimidin-6-yl)amino)-N,1-dimethylcyclopentane-1-carboxamide]
28 |  | 25 to 200 | O=C(NCC(F)(F)CO)[C@@H]1CC[C@@H](Nc2ncc3c(Br)nn(-c4cc(F)c5ncccc5c4)c3n2)C1
29 |  | 25 to 200 | CNC(=O)C1(CCC#N)CC[C@@H](Nc2ncc3c(Br)nn(-c4ccc(-c5nnc(C)s5)cc4)c3n2)C1 (stereo partly drawn) [(3R)-3-[[3-bromo-1-[4-(5-methyl-1,3,4-thiadiazol-2-yl)phenyl]pyrazolo[3,4-d]pyrimidin-6-yl]amino]-1-(2-cyanoethyl)-N-methyl-cyclopentanecarboxamide]
30 |  | 25 to 200 | CNC(=O)C1(C)CC[C@@H](Nc2ncc3c(Br)nn(-c4ccc5nc(OC)ccc5c4)c3n2)C1 (stereo partly drawn) [(3R)-3-[[3-bromo-1-(2-methoxy-6-quinolyl)pyrazolo[3,4-d]pyrimidin-6-yl]amino]-N,1-dimethyl-cyclopentanecarboxamide]
31 | 25 to 200 |  | NC(=O)[C@@H]1CC[C@@H](Nc2ncc3c(Br)nn(-c4cc(F)c5ncccc5c4)c3n2)C1 [Example 12, (1R,3R)-3-((3-bromo-1-(8-fluoroquinolin-6-yl)-1H-pyrazolo[3,4-d]pyrimidin-6-yl)amino)cyclopentane-1-carboxamide]

— patent publication US11046699B2, “Pyrazolo-pyrimidin-amino-cycloalkyl compounds and their therapeutic uses” (RAPT THERAPEUTICS, INC., priority 2018, dated 2021)
